Earlier results, collected in patent US20170196789A1, “REDUCTION OF ORAL AND EPIDERMAL MALODOR IN HUMANS AND ANIMALS” (priority 2014, published 2017).

Tests used:
[1] = chlorhexidine exposure, current animal research
[2] = in vivo
[3] = after adhesion to the mucus membrane surface

Q: For `[H]/N=C(\N/C(=N/[H])NCCCCCCNC(=N)NC(=N)Nc1ccc(Cl)cc1)Nc1ccc(Cl)cc1` [chlorhexidine, Chlorhexidine], which “toxic and/or cancerous effects in animals” value [1] is on record?
A: Its value is “does not demonstrate any evidence of toxic and/or cancerous effects”.

Q: And the “absorption through the digestive system” value [2]?
A: The value was “minimal”.

Q: And the “share of the total consumed amount remaining in the oral cavity” value [3]?
A: The value was “Approximately thirty”.
